System: nisin sensitive strain
Assay: agar well (halo) assay for antibacterial activity
Assay type: cell-based
Details: Example 5: trypsin-treated ziptipped material/crude supernatant of E. coli SF120 with NisABTC
Experimental: The above ZIPTIPPED™ material and the crude supernatant is treated after outer membrane disruption with trypsin. This material is applied to the agar well assay to determine antibacterial activity.
Materials and methods. […] NZ9000+pNG-NisABTC were grown and induced. The supernatant is analyzed as in Example 1. Trypsin treated supernatant was subjected to the agar well assay by pouring the trypsinated supernatant in an agar well and overlaying with a nisin sensitive strain.
The mutation was checked by PCR and sequencing. The above-generated ΔNisP strain was grown overnight in M17 medium (Terzaghi and Sandine, 1975, Appl. Microbiol. 29: 807-813), diluted 100 fold and grown to OD600 equal to 0.4. […] After 1, 2 and 3 hours, more 0.2 mM pmsf, 0.2 mM TPCK are added and followed by overnight incubation. […] Elution and experiments a) and b).

nisin
antimicrobial activity in the agar well assay: antimicrobial activity

Reference: patent publication US6861236B2, “Export and modification of (poly)peptides in the lantibiotic way” (Applied Nanosystems B.V., priority 2002, dated 2005)
